Experimental data: US12180187B2, “1-phenyl-5-azinylpyrazolyl-3-oxyalkyl acids and their use for controlling unwanted plant growth” (BAYER AKTIENGESELLSCHAFT, priority 2019, dated 2024)

Experiments:
[1] = test system: VIOTR; assay: Pre-emergence action at 320 g/ha against VIOTR; assay type: in vivo, Viola tricolor; settings: dosage 320 g/ha
In short: (§1)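 Weed and crop seeds sown in pots and covered with soil; WP or EC formulations sprayed pre-emergence onto the soil surface at 320 g/ha with 0.5% additive in 600 l/ha water. Kept in greenhouse; after about 3 weeks activity scored visually as % versus untreated controls (100% = plants dead, 0% = as control).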

[2] = test system: ALOMY; assay: Pre-emergence action against ALOMY, 1280 g/ha; assay type: in vivo, Alopecurus myosuroides; settings: visual scoring after about 3 weeks vs untreated controls, 100% = plants have died, 0% = like control plants
In short: (§2)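 Percent herbicidal effect, judged by eye relative to untreated pots around 3 weeks after soil-surface treatment. Application: formulated compound in water, 600 L/ha, 0.5% additive, on soil over sown seeds; greenhouse.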

[3] = test system: LOLRI; assay: Post-emergence action against LOLRI, 1.28 kg/ha; assay type: in vivo, Lolium rigidum; settings: dosage 1280 g/ha, visual rating about 3 weeks after treatment vs untreated controls
In short: (§3)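 Visual rating against untreated plants about 3 weeks after spraying gives % activity, where 0% means like controls and 100% means plants died. Plants were treated post-emergence at the one-leaf stage with compound formulated as wettable powder or emulsion concentrate, applied at 600 L water/ha plus 0.5% additive.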

[4] = test system: SETVI; assay: Pre-emergence action at 320 g/ha against SETVI; assay type: in vivo, Setaria viridis; settings: visual scoring after about 3 weeks vs untreated controls
In short: as §1

[5] = test system: LOLRI; assay: Pre-emergence action at 320 g/ha against LOLRI; assay type: in vivo, Lolium rigidum; settings: visual scoring after about 3 weeks vs untreated controls
In short: as §1

[6] = test system: VERPE; assay: Pre-emergence action at 320 g/ha against VERPE; assay type: in vivo, Veronica persica; settings: visual scoring after about 3 weeks vs untreated controls
In short: as §1

[7] = test system: AMARE; assay: Post-emergence action against AMARE, 1.28 kg/ha; assay type: in vivo, Amaranthus retroflexus; settings: dosage 1280 g/ha, visual rating about 3 weeks after treatment vs untreated controls (100% = plants died)
In short: as §3

[8] = test system: AMARE; assay: Pre-emergence action against AMARE, 1280 g/ha; assay type: in vivo, Amaranthus retroflexus; settings: scored visually after about 3 weeks vs untreated controls (100% = plants have died)
In short: as §2

[9] = test system: MATIN; assay: Post-emergence action against MATIN, 1.28 kg/ha; assay type: in vivo, Tripleurospermum inodorum (Matricaria inodora); settings: dosage 1280 g/ha, visual rating about 3 weeks after treatment vs untreated controls (100% = plants died)
In short: as §3

[10] = test system: ALOMY; assay: Post-emergence action against ALOMY, 1.28 kg/ha; assay type: in vivo, Alopecurus myosuroides; settings: dosage 1280 g/ha, visual rating about 3 weeks after treatment vs untreated controls
In short: as §3

[11] = test system: POAAN; assay: Post-emergence action against POAAN, 1.28 kg/ha; assay type: in vivo, Poa annua; settings: dosage 1280 g/ha, visual rating about 3 weeks after treatment vs untreated controls
In short: as §3

[12] = test system: VERPE; assay: Pre-emergence action against VERPE, 1280 g/ha; assay type: in vivo, Veronica persica; settings: scored visually after about 3 weeks vs untreated controls (100% = plants have died)
In short: as §2

[13] = test system: DIGSA; assay: Pre-emergence action at 320 g/ha against DIGSA; assay type: in vivo, Digitaria sanguinalis; settings: visual scoring after about 3 weeks vs untreated controls
In short: as §1

[14] = test system: ECHCG; assay: Pre-emergence action against ECHCG, 1280 g/ha; assay type: in vivo, Echinochloa crus-galli; settings: visual scoring after about 3 weeks vs untreated controls, 100% = plants have died, 0% = like control plants
In short: as §2

[15] = test system: AVEFA; assay: Pre-emergence action at 320 g/ha against AVEFA; assay type: in vivo; settings: visual scoring after about 3 weeks vs untreated controls
In short: as §1

[16] = test system: POAAN; assay: Pre-emergence action against POAAN, 1280 g/ha; assay type: in vivo, Poa annua; settings: visual scoring after about 3 weeks vs untreated controls, 100% = plants have died, 0% = like control plants
In short: as §2

[17] = test system: ABUTH; assay: Pre-emergence action against ABUTH, 1280 g/ha; assay type: in vivo, Abutilon theophrasti; settings: scored visually after about 3 weeks vs untreated controls (100% = plants have died)
In short: as §2

[18] = test system: PHBPU; assay: Pre-emergence action at 320 g/ha against PHBPU; assay type: in vivo; settings: visual scoring after about 3 weeks vs untreated controls
In short: as §1

[19] = test system: ALOMY; assay: Pre-emergence action at 320 g/ha against ALOMY; assay type: in vivo, Alopecurus myosuroides; settings: scored visually after about 3 weeks vs untreated controls (100% = plants have died)
In short: as §1

[20] = test system: STEME; assay: Post-emergence action against STEME, 1.28 kg/ha; assay type: in vivo, Stellaria media; settings: dosage 1280 g/ha, visual rating about 3 weeks after treatment vs untreated controls (100% = plants died)
In short: as §3

[21] = test system: DIGSA; assay: Post-emergence action against DIGSA, 1.28 kg/ha; assay type: in vivo, Digitaria sanguinalis; settings: dosage 1280 g/ha, visual rating about 3 weeks after treatment vs untreated controls
In short: as §3

[22] = test system: DIGSA; assay: Pre-emergence action against DIGSA, 1280 g/ha; assay type: in vivo, Digitaria sanguinalis; settings: visual scoring after about 3 weeks vs untreated controls, 100% = plants have died, 0% = like control plants
In short: as §2

[23] = test system: VERPE; assay: Post-emergence action against VERPE, 1.28 kg/ha; assay type: in vivo, Veronica persica; settings: dosage 1280 g/ha, visual rating about 3 weeks after treatment vs untreated controls (100% = plants died)
In short: as §3

[24] = test system: SETVI; assay: Pre-emergence action against SETVI, 1280 g/ha; assay type: in vivo, Setaria viridis; settings: visual scoring after about 3 weeks vs untreated controls, 100% = plants have died, 0% = like control plants
In short: as §2

[25] = test system: MATIN; assay: Pre-emergence action against MATIN, 1280 g/ha; assay type: in vivo, Tripleurospermum inodorum (Matricaria inodora); settings: scored visually after about 3 weeks vs untreated controls (100% = plants have died)
In short: as §2

[26] = test system: ECHCG; assay: Post-emergence action against ECHCG, 1.28 kg/ha; assay type: in vivo, Echinochloa crus-galli; settings: dosage 1280 g/ha, visual rating about 3 weeks after treatment vs untreated controls
In short: as §3

[27] = test system: POLCO; assay: Pre-emergence action at 320 g/ha against POLCO; assay type: in vivo, Fallopia convolvulus (Polygonum convolvulus); settings: visual scoring after about 3 weeks vs untreated controls
In short: as §1

[28] = test system: MATIN; assay: Pre-emergence action at 320 g/ha against MATIN; assay type: in vivo, Tripleurospermum inodorum (Matricaria inodora); settings: visual scoring after about 3 weeks vs untreated controls
In short: as §1

[29] = test system: AMARE; assay: Pre-emergence action at 320 g/ha against AMARE; assay type: in vivo, Amaranthus retroflexus; settings: visual scoring after about 3 weeks vs untreated controls
In short: as §1

[30] = test system: ABUTH; assay: Post-emergence action against ABUTH, 1.28 kg/ha; assay type: in vivo, Abutilon theophrasti; settings: dosage 1280 g/ha, visual rating about 3 weeks after treatment vs untreated controls (100% = plants died)
In short: as §3

[31] = test system: LOLRI; assay: Pre-emergence action against LOLRI, 1280 g/ha; assay type: in vivo, Lolium rigidum; settings: visual scoring after about 3 weeks vs untreated controls, 100% = plants have died, 0% = like control plants
In short: as §2

[32] = test system: SETVI; assay: Post-emergence action against SETVI, 1.28 kg/ha; assay type: in vivo, Setaria viridis; settings: dosage 1280 g/ha, visual rating about 3 weeks after treatment vs untreated controls
In short: as §3

[33] = test system: ECHGC; assay: Pre-emergence action at 320 g/ha against ECHGC; assay type: in vivo, Echinochloa crus-galli; settings: visual scoring after about 3 weeks vs untreated controls
In short: as §1

[34] = test system: ABUTH; assay: Pre-emergence action at 320 g/ha against ABUTH; assay type: in vivo, Abutilon theophrasti; settings: greenhouse, scored visually after about 3 weeks vs untreated controls, 100% = plants have died, 0% = like control plants
Excerpt: b) Seeds of monocotyledonous and dicotyledonous weed plants and crop plants are placed in plastic or organic planting pots and covered with soil. The compounds of the invention, formulated in the form of wettable powders (WP) or as emulsion concentrates (EC), are then applied onto the surface of the covering soil as aqueous suspension or emulsion with addition of 0.5% additive at a water application rate of 600 l/ha (converted). After the treatment, the pots are placed in a greenhouse and kept under good growth conditions for the trial plants. After about 3 weeks, the effect of the preparations is scored visually in comparison with untreated controls as percentages. For example, 100% activity=the plants have died, 0% activity=like control plants. Tables 13 to 26 below show the effects of selected compounds of the general formula (I) on various harmful plants and at an application rate corresponding to 320 g/ha, which were obtained by the experimental procedure mentioned above.

[35] = test system: KCHSC; assay: Pre-emergence action against KCHSC, 1280 g/ha; assay type: in vivo, Bassia scoparia; settings: scored visually after about 3 weeks vs untreated controls (100% = plants have died)
In short: as §2

[36] = test system: STEME; assay: Pre-emergence action against STEME, 1280 g/ha; assay type: in vivo, Stellaria media; settings: scored visually after about 3 weeks vs untreated controls (100% = plants have died)
In short: as §2

N#CCCOC(=O)COc1nn(-c2ccccc2F)c(-c2ccc(F)nc2)c1Br [VII-104]
100%: Pre-emergence action against VIOTR in % [1] | Pre-emergence action against ALOMY [2] | Post-emergence action against LOLRI [3] | Pre-emergence action against SETVI in % [4] | Pre-emergence action against LOLRI in % [5] | Pre-emergence action against VERPE in % [6] | Pre-emergence action against AMARE [8] | Post-emergence action against MATIN [9] | Post-emergence action against ALOMY [10] | Post-emergence action against POAAN [11] | Pre-emergence action against VERPE [12] | Pre-emergence action against DIGSA in % [13] | Pre-emergence action against ECHCG [14] | Pre-emergence action against POAAN [16] | Pre-emergence action against PHBPU in % [18] | Pre-emergence action at 320 g/ha against ALOMY in % [19] | Post-emergence action against DIGSA [21] | Pre-emergence action against DIGSA [22] | Pre-emergence action against SETVI [24] | Pre-emergence action against MATIN [25] | Post-emergence action against ECHCG [26] | Pre-emergence action against MATIN in % [28] | Pre-emergence action against AMARE in % [29] | Pre-emergence action against LOLRI [31] | Pre-emergence action against ECHGC in % [33] | Pre-emergence action against STEME [36]
90%: Post-emergence action against AMARE [7] | Pre-emergence action against AVEFA in % [15] | Pre-emergence action against ABUTH [17] | Post-emergence action against STEME [20] | Post-emergence action against VERPE [23] | Pre-emergence action against POLCO in % [27] | Post-emergence action against ABUTH [30] | Post-emergence action against SETVI [32] | Pre-emergence action against KCHSC [35]
80%: Pre-emergence action at 320 g/ha against ABUTH in % [34]

COC(=O)[C@@H](C)Oc1nn(-c2cc(F)ccc2F)c(-c2cncc(F)c2)c1I [VII-135]
80%: Pre-emergence action at 320 g/ha against ABUTH in % [34]
100%: Pre-emergence action against VIOTR in % [1] | Pre-emergence action against SETVI in % [4] | Pre-emergence action against LOLRI in % [5] | Pre-emergence action against VERPE in % [6] | Pre-emergence action at 320 g/ha against ALOMY in % [19] | Pre-emergence action against POLCO in % [27] | Pre-emergence action against AMARE in % [29]
90%: Pre-emergence action against AVEFA in % [15] | Pre-emergence action against PHBPU in % [18] | Pre-emergence action against MATIN in % [28] | Pre-emergence action against ECHGC in % [33]

CCOC(=O)[C@@H](C)Oc1nn(-c2cc(F)ccc2F)c(-c2cncc(F)c2)c1Br [VII-136]
90%: Pre-emergence action against LOLRI in % [5] | Pre-emergence action against AVEFA in % [15] | Pre-emergence action against PHBPU in % [18] | Pre-emergence action against MATIN in % [28] | Pre-emergence action against ECHGC in % [33]
100%: Pre-emergence action against VIOTR in % [1] | Pre-emergence action against SETVI in % [4] | Pre-emergence action against VERPE in % [6] | Pre-emergence action at 320 g/ha against ALOMY in % [19] | Pre-emergence action against POLCO in % [27] | Pre-emergence action against AMARE in % [29]
80%: Pre-emergence action at 320 g/ha against ABUTH in % [34]
